According to paper PMC10096175, “An In Vitro Antimicrobial, Anticancer and Antioxidant Activity of N–[(2–Arylmethylthio)phenylsulfonyl]cinnamamide Derivatives” (Molecules, 2023):
Values after ≈ are worked out from the molar mass of the structure shown. Like-named read-outs stand apart in the source and are kept apart here.

Experiments:
S. aureus ATCC 6538 = test: MIC determination, reference strain (microdilution); format: cell-based; conditions: Staphylococcus aureus, ATCC6538; S. aureus ATCC 6538; ± SD; Co-trimoxazole as sulfamethoxazole/trimethoprim; read-out: MIC
[1] = test system: S. epidermidis ATCC 14990; test: as above; format: cell-based; conditions: Staphylococcus epidermidis, ATCC14990; S. epidermidis ATCC 14990; Co-trimoxazole as sulfamethoxazole/trimethoprim; read-out: MIC
E. hirae ATCC 10541 = test: as above; format: cell-based; conditions: Enterococcus hirae, ATCC10541; E. hirae ATCC 10541; Co-trimoxazole as sulfamethoxazole/trimethoprim; read-out: MIC
E. faecalis ATCC 51299 = test: as above; format: cell-based; conditions: Enterococcus faecalis, ATCC51299; E. faecalis ATCC 51299; Co-trimoxazole as sulfamethoxazole/trimethoprim; read-out: MIC
B. subtilis ATCC 6633 = test: as above; format: cell-based; conditions: Bacillus subtilis, ATCC6633; B. subtilis ATCC 6633; Co-trimoxazole as sulfamethoxazole/trimethoprim; read-out: MIC
C. diphtheriae = test: as above; format: cell-based; conditions: Corynebacterium diphtheriae; C. diphtheriae; Co-trimoxazole as sulfamethoxazole/trimethoprim; read-out: MIC
C. albicans ATCC 10231 = test: MIC determination, reference fungal strain (microdilution); format: cell-based; conditions: Candida albicans, ATCC10231; C. albicans ATCC 10231; read-out: MIC
E. coli ATCC 8739 = test: MIC determination, reference strain (microdilution); format: cell-based; conditions: Escherichia coli, ATCC8739; E. coli ATCC 8739; Co-trimoxazole as sulfamethoxazole/trimethoprim; read-out: MIC
[2] = test system: clinical methicillin-resistant S. aureus (MRSA) strains; test: MIC on clinical MRSA strains; format: cell-based; conditions: Staphylococcus aureus, MRSA / VISA; strains MRSA12673, MRSA21804, MRSA18532, MRSA12647 and MRSAN315 VISA
Text: In the next step, we evaluated the compounds on clinical methicillin-resistant S. aureus (MRSA) strains (Figure 2) and methicillin-resistant coagulase-negative Staphylococcus (MRCNS) (Figure 3). The group of CNS includes nonpathogenic or opportunistic pathogens, while coagulase-positive staphylococci are represented by S. aureus. About 30% of the human population carries S. aureus in the upper respiratory tract. Infections caused by S. aureus include all purulent skin conditions (boils, abscesses, folliculitis) and nosocomial infections. The strains isolated from hospitals are usually antibiotic-resistant, where MRSA strains are the majority. Staphylococcus epidermidis (like other coagulase-negative Staphylococcus) is included in the microflora of human skin and can easily cause surface contamination after surgical procedures.
Sterile sheep blood defibrinated (GrasoBiotech). Co-trimoxazole (composition sulfamethoxazole 400 mg/trimethoprim 80 mg; WZF Polfa Poland). Ketoconazole (WZF Polfa Poland). Bacteria: Enterococcus hirae ATCC 10541 and Enterococcus faecalis ATCC 51299, Staphylococcus epidermidis ATCC 14990, Staphylococcus aureus ATCC 6538, clinical strains Staphylococcus aureus MRSA, clinical strains Staphylococcus sp. […]

[3] = test system: clinical strains of Enterococcus sp.; test: MIC on clinical Enterococcus strains; format: cell-based
HeLa cells = test: MTT assay; format: cell-based, human; conditions: for IC50: HeLa, MTT, 24 h treatment; for Selectivity index (SI): IC50 HEK-293 / IC50 HeLa
SKOV-3 cells = test: MTT assay; format: cell-based, human; conditions: for IC50: Homo sapiens, SK-OV-3, SKOV-3, MTT, 24 h treatment, read-out: IC50; for Selectivity index (SI): IC50 HEK-293 / IC50 SKOV-3
MCF-7 cells = test: MTT assay; format: cell-based, human; conditions: for IC50: Homo sapiens, MCF7, MCF-7, MTT, 24 h treatment, read-out: IC50; for Selectivity index (SI): IC50 HEK-293 / IC50 MCF-7
HEK-293 cells = test: MTT assay, noncancerous cells; format: cell-based; conditions: Homo sapiens, HEK293; HEK-293; MTT, 24 h treatment; read-out: IC50
DPPH assay = conditions: DPPH radical scavenging; 40 min, room temperature
Protocol: The DPPH assay was performed spectrophotometrically. The amount of 30 µL of different concentrations of samples, dissolved in methanol/DMSO (9/1 v/v), was mixed with 170 µL of 0.06 mM DPPH methanolic solution and completed with methanol to a final volume of 300 µL. DPPH methanolic solution with methanol/DMSO (9/1 v/v) was used as a control. After 40 min of incubation at room temperature in the dark, the absorbance was analyzed at λ = 510 nm by a 96-well microplate reader (Epoch, BioTek System, Santa Clara, CA, USA). Ascorbic acid was used as a standard.
DPPH inhibition was calculated by the following equation:DPPH Inhibition (%) = [Acontrol − Asample)/Acontrol] × 100%
(§1) IC50 values of the samples were calculated using program GraFit v. 7.0 (Erithacus Software). The analysis was performed three times, with tree replications in each (n = 9). Statistical analysis was performed with one-way ANOVA with Tuckey’s post-hoc test.

ABTS assay = conditions: ABTS radical scavenging; 10 min, 30 °C
Protocol: The ABTS assay was performed spectrophotometrically. […] ABTS solution with methanol/DMSO (9/1 v/v) was used as a control. After 10 min of incubation at 30 °C in the dark, the absorbance was analyzed at λ = 750 nm by a 96-well microplate reader (Epoch, BioTek System, Santa Clara, CA, USA). Ascorbic acid was used as a standard.
ABTS inhibition was calculated by the following equation:ABTS Inhibition (%) = [Acontrol − Asample)/Acontrol] × 100%
as §1

in vitro = conditions: sheep, defibrinated sheep blood diluted 1:9 v/v with PBS, pH 7
[4] = test system: cancer cells (HeLa, SKOV-3, MCF-7); test: MTT assay, summary statements on the cancer cells; format: cell-based; conditions: Homo sapiens, cell line not specified
[5] = Enterococcus sp. 3937152, read-out: MIC
[6] = Homo sapiens, 24 h, read-out: IC50

Structure (SMILES)	MIC (S. aureus ATCC 6538)	MIC [1]	MIC (E. hirae ATCC 10541)	MIC (E. faecalis ATCC 51299)	MIC (B. subtilis ATCC 6633)	MIC (C. diphtheriae)	MIC (C. albicans ATCC 10231)	MIC (E. coli ATCC 8739)	MIC [3, 5]	IC50 (HeLa cells; [6])	Selectivity index (SI) (HeLa cells)	IC50 (SKOV-3 cells)	Selectivity index (SI) (SKOV-3 cells)	IC50 (MCF-7 cells)	Selectivity index (SI) (MCF-7 cells)	IC50 (HEK-293 cells)	IC50 DPPH (DPPH assay)	IC50 ABTS (ABTS assay)	other results
Cc1cc(S(=O)(=O)NC(=O)/C=C/c2ccc(F)cc2)c(SCc2cc3c(cc2Cl)OCO3)cc1Cl [Compound 17b, (E)–N–{4–Chloro–2–[(6–chlorobenzo[d][1,3]dioxol–5–yl)methylthio]–5–methylphenylsulfonyl}–3–(4–fluorophenyl)acrylamide]	2 ± 0.29 µg/mL (≈ 3.61 µM)	2 ± 0.58 µg/mL (≈ 3.61 µM)	4 ± 0.15 µg/mL (≈ 7.21 µM)	4 ± 0.15 µg/mL (≈ 7.21 µM)	62.5 ± 0.29 µg/mL (≈ 113 µM)	> 125 µg/mL	> 125 µg/mL	> 125 µg/mL	> 125 µg/mL	12 ± 0.44 µg/mL (≈ 21.6 µM)	0.6	11 ± 0.5 µg/mL (≈ 19.8 µM)	0.6	14.8 ± 0.66 µg/mL (≈ 26.7 µM)	0.5	7.17 ± 0.44 µg/mL (≈ 12.9 µM)	652.93 ± 2.39 µg/mL (≈ 1180 µM)	620.39 ± 1.29 µg/mL (≈ 1120 µM)	MIC [2]: > 125 µg/mL; MIC ([3]; Enteroccoccus sp. 3934825): > 125 µg/mL; MIC ([3]; Enterococcus sp. 12848): > 125 µg/mL; hemolysis at 24 h, 62.5 µg/mL (in vitro): 9%
Cc1cc(S(=O)(=O)NC(=O)/C=C/c2ccc([N+](=O)[O-])cc2)c(SCc2cc3c(cc2Cl)OCO3)cc1Cl [Compound 17d, (E)–N–{4–Chloro–2–[(6–chlorobenzo[d][1,3]dioxol–5–yl)methylthio]–5–methylphenylsulfonyl}–3–(4–nitrophenyl)acrylamide]	4 ± 0.16 µg/mL (≈ 6.88 µM)	2 ± 0.76 µg/mL (≈ 3.44 µM)	8 ± 0.15 µg/mL (≈ 13.8 µM)	8 ± 0.15 µg/mL (≈ 13.8 µM)	125 ± 0.29 µg/mL (≈ 215 µM)	62.5 ± 0.29 µg/mL (≈ 107 µM)	> 125 µg/mL	> 125 µg/mL	> 125 µg/mL	< 10 µg/mL	1.5	15.3 ± 0.16 µg/mL (≈ 26.4 µM)	1.0	16.3 ± 0.27 µg/mL (≈ 28.1 µM)	0.9	15.4 ± 0.69 µg/mL (≈ 26.4 µM)	574.41 ± 1.34 µg/mL (≈ 988 µM)	419.18 ± 2.72 µg/mL (≈ 721 µM)	IC50 (HeLa cells): 9.99 ± 0.08 µg/mL (≈ 17.2 µM); IC50 ([4]; MTT): < 10 µg/mL; IC50 ([4]; µg/mL bound converted): ≤ 20 µM; hemolysis at 24 h, 31.25 µg/mL (in vitro): 12 to 20%
